Results published in PubChem BioAssay AID256 (DTP/NCI, 2004).
Toxic doses and inconclusive results are not listed. Rule for the calls: active = survival T/C of 150% or more; inactive = T/C below 125% in these data.

System: CD2F1 mice, L1210 leukemia ip, survival T/C
Experiment: NCI In Vivo Anticancer Drug Screen. Data for tumor model L1210 Leukemia (intraperitoneal) in CD2F1 (CDF1) mice
Conditions: higher = longer survival
Procedure, shortened: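 Implant tumor; dose compound or vehicle; measure endpoint in both groups; report treated divided by control.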

[1] = endpoint: mean survival time, dose: 6.25 mg/kg/injection, schedule: Q01DX009 (ip), vehicle: saline with Tween-80
[2] = endpoint: mean survival time, dose: 12.5 mg/kg/injection, schedule: Q01DX009 (ip), vehicle: saline with Tween-80
[3] = endpoint: mean survival time, dose: 100.0 mg/kg/injection, schedule: Q04DX003 (ip), vehicle: saline with Tween-80
[4] = endpoint: mean survival time, dose: 200.0 mg/kg/injection, schedule: Q04DX003 (ip), vehicle: saline with Tween-80
[5] = endpoint: mean survival time, dose: 400.0 mg/kg/injection, schedule: Q04DX003 (ip), vehicle: saline with Tween-80
[6] = endpoint: mean survival time, dose: 100.0 mg/kg/injection, schedule: Q01DX009 (ip), vehicle: saline with Tween-80
[7] = endpoint: mean survival time, dose: 200.0 mg/kg/injection, schedule: Q01DX009 (ip), vehicle: saline with Tween-80
[8] = endpoint: mean survival time, dose: 400.0 mg/kg/injection, schedule: Q01DX009 (ip), vehicle: saline with Tween-80
[9] = endpoint: mean survival time, dose: 25.0 mg/kg/injection, schedule: Q01DX009 (ip), vehicle: saline with Tween-80

Measured: T/C

COc1ccc(O)cc1
inactive: endpoint: median survival time, dose: 12.5 mg/kg/injection, schedule: Q01DX005 (ip), vehicle: saline with Tween-80 98 % of control | endpoint: median survival time, dose: 25.0 mg/kg/injection, schedule: Q01DX005 (ip), vehicle: saline with Tween-80 98 % of control | endpoint: median survival time, dose: 50.0 mg/kg/injection, schedule: Q01DX005 (ip), vehicle: saline with Tween-80 95 % of control | endpoint: median survival time, dose: 100.0 mg/kg/injection, schedule: Q01DX005 (ip), vehicle: saline with Tween-80 103 % of control | endpoint: median survival time, dose: 200.0 mg/kg/injection, schedule: Q01DX005 (ip), vehicle: saline with Tween-80 116 % of control

COC1=C(OC)C(=O)C(C/C=C(\C)CC/C=C(\C)CC/C=C(\C)CC/C=C(\C)CC/C=C(\C)CCC=C(C)C)=C(C)C1=O
inactive: endpoint: mean survival time, dose: 100.0 mg/kg/injection, schedule: Q01DX001 (ip), vehicle: saline 102 % of control | endpoint: mean survival time, dose: 200.0 mg/kg/injection, schedule: Q01DX001 (ip), vehicle: saline 103 % of control | endpoint: mean survival time, dose: 400.0 mg/kg/injection, schedule: Q01DX001 (ip), vehicle: saline 100 % of control

CC(C)[CH2][Sn]([CH2]C(C)C)([CH2]C(C)C)[O]C(=O)C1(C)CCCC2(C)C3CCC(C(C)C)=CC3=CCC12 (stereo not drawn)
inactive: endpoint: mean survival time, dose: 3.12 mg/kg/injection, schedule: Q01DX009 (ip), vehicle: saline with Tween-80 97 % of control | [1] 90 % of control | [2] 93 % of control

CC12CCC3C(CCC4CC(O)CCC43C)C1CCC2=O (stereo not drawn)
inactive: [3] 103 % of control | [4] 92 % of control | [5] 97 % of control

Cc1c2c(cc3c1CCC1(C)C3CCC1C(C)CCC(C)C(C)C)CC(O)CC2 (stereo not drawn)
inactive: endpoint: mean survival time, dose: 75.0 mg/kg/injection, schedule: Q01DX001 (ip), vehicle: saline with Tween-80 92 % of control | endpoint: mean survival time, dose: 150.0 mg/kg/injection, schedule: Q01DX001 (ip), vehicle: saline with Tween-80 90 % of control | endpoint: mean survival time, dose: 300.0 mg/kg/injection, schedule: Q01DX001 (ip), vehicle: saline with Tween-80 90 % of control

CCOC(=O)Nc1cc(NC(=O)OCC)cc([N+](=O)[O-])c1
inactive: [6] 98 % of control | [7] 98 % of control | [8] 106 % of control

CCOC(=O)c1c([N+](=O)[O-])cnn1C1OC(COC(C)=O)C(OC(C)=O)C1OC(C)=O (stereo not drawn)
inactive: endpoint: median survival time, dose: 8.75 mg/kg/injection, schedule: Q01DX005 (ip), vehicle: distilled water + Tween-80 104 % of control | endpoint: median survival time, dose: 17.5 mg/kg/injection, schedule: Q01DX005 (ip), vehicle: distilled water + Tween-80 107 % of control | endpoint: median survival time, dose: 35.0 mg/kg/injection, schedule: Q01DX005 (ip), vehicle: distilled water + Tween-80 96 % of control | endpoint: median survival time, dose: 70.0 mg/kg/injection, schedule: Q01DX005 (ip), vehicle: distilled water + Tween-80 101 % of control | endpoint: median survival time, dose: 140.0 mg/kg/injection, schedule: Q01DX005 (ip), vehicle: distilled water + Tween-80 101 % of control

COC1=C(C)C(=O)c2c(c(COC(N)=O)c3n2CCC3OC(N)=O)C1=O (stereo not drawn)
inactive: endpoint: mean survival time, dose: 1.25 mg/kg/injection, schedule: Q01DX001 (ip), vehicle: distilled water + Tween-80 108 % of control | endpoint: mean survival time, dose: 1.5 mg/kg/injection, schedule: Q01DX001 (ip), vehicle: distilled water + Tween-80 114 % of control | endpoint: mean survival time, dose: 2.5 mg/kg/injection, schedule: Q01DX001 (ip), vehicle: distilled water + Tween-80 120 % of control | endpoint: mean survival time, dose: 3.0 mg/kg/injection, schedule: Q01DX001 (ip), vehicle: distilled water + Tween-80 118 % of control | endpoint: mean survival time, dose: 5.0 mg/kg/injection, schedule: Q01DX001 (ip), vehicle: distilled water + Tween-80 117 % of control | endpoint: mean survival time, dose: 6.0 mg/kg/injection, schedule: Q01DX001 (ip), vehicle: distilled water + Tween-80 116 % of control | endpoint: mean survival time, dose: 10.0 mg/kg/injection, schedule: Q01DX001 (ip), vehicle: distilled water + Tween-80 115 % of control | endpoint: mean survival time, dose: 12.0 mg/kg/injection, schedule: Q01DX001 (ip), vehicle: distilled water + Tween-80 122 % of control

Cc1cccc(C(=O)C=C(C(F)(F)F)C(F)(F)F)c1
inactive: [2] 103 % of control | [9] 113 % of control

Cc1c(N=O)c(-c2ccccc2)n(O)[n+]1[O-]
inactive: endpoint: mean survival time, dose: 50.0 mg/kg/injection, schedule: Q01DX009 (ip), vehicle: Klucel (hydroxypropylcellulose) (HPC) 104 % of control | endpoint: mean survival time, dose: 100.0 mg/kg/injection, schedule: Q01DX009 (ip), vehicle: Klucel (hydroxypropylcellulose) (HPC) 104 % of control | endpoint: mean survival time, dose: 200.0 mg/kg/injection, schedule: Q01DX009 (ip), vehicle: Klucel (hydroxypropylcellulose) (HPC) 101 % of control

c1ccc2c(c1)C(=NN=C1c3ccccc3-c3ccccc31)c1ccccc1-2
inactive: [6] 94 % of control | [3] 94 % of control | [7] 92 % of control | [4] 88 % of control | [8] 94 % of control | [5] 88 % of control

CSc1ccc(N=C=C(c2ccccc2)c2ccccc2)cc1
inactive: [1] 96 % of control | [2] 94 % of control | [9] 94 % of control | [3] 93 % of control | [4] 95 % of control | [5] 97 % of control

COc1ccc(NC(=O)Oc2ccc(SC)cc2)cc1
inactive: endpoint: mean survival time, dose: 100.0 mg/kg/injection, schedule: Q04DX002 (ip), vehicle: saline with Tween-80 98 % of control | endpoint: mean survival time, dose: 200.0 mg/kg/injection, schedule: Q04DX002 (ip), vehicle: saline with Tween-80 102 % of control | endpoint: mean survival time, dose: 400.0 mg/kg/injection, schedule: Q04DX002 (ip), vehicle: saline with Tween-80 98 % of control
